Earlier results on one compound are cited in patent US6749867B2, “Delivery system for omeprazole and its salts” (priority 2000, dated 2004).

Molecules are shown by their SMILES. Like-named read-outs stand apart in the source and are kept apart here.

Assay in data set [1]: not given
The source holds these as a separate data set.

The conditions of data set [2]: in vivo.

Turning to `COc1ccc2[nH]c([S+]([O-])Cc3ncc(C)c(OC)c3C)nc2c1` (stereo not drawn) [omeprazole, Omeprazole], the “solubility in alkaline solution” value (alkaline solution, as the negatively charged ion) is listed as “very soluble”. Besides, the solubility in water entry (water) is recorded as “very slightly soluble”. Also, the half-life of degradation entry was “less than 10 minutes” in data set [1] (acidic aqueous solutions, pH values below 4); “about 18 hours” in data set [1] (pH 6.5); “several hundred” in data set [1] (pH 11). Also, the plasma half-life result in data set [2] is given as “about 60 minutes”.
